Results as given in US20250213489A1, “OSMOTIC TABLETS OF DEXPRAMIPEXOLE AND METHODS OF MANUFACTURING AND USE THEREOF” (Areteia Therapeutics, Inc., priority 2023, published 2025).
Where a name gives a salt, the structure may show the parent alone.

How the values were obtained:
[1] = during tablet manufacture and storage
Excerpt: The chiral purity might be determined by analyzing a sample of dexpramipexole, or a pharmaceutically acceptable salt thereof, by high performance liquid chromatography (HPLC).

dopamine receptors = conditions: cited from earlier work
eosinophils = conditions: human blood and tissues; cited from earlier work

CCCN[C@@H]1CCc2nc(N)sc2C1 [dexpramipexole dihydrochloride monohydrate]
chiral purity over time [1]: did not change over time

CCCN[C@@H]1CCc2nc(N)sc2C1 [dexpramipexole, (6R)-2-amino-4,5,6,7-tetrahydro-6-(propylamino)benzothiazole]
affinity for dopamine receptors compared to pramipexole (dopamine receptors): greatly reduced
effect on eosinophil counts (eosinophils): selectively and significantly lower eosinophil counts
